Experimental data published in patent US20110189094A1, “BIOLOGICAL METHOD FOR IN VIVO TRACKING OF MOLECULES AFFECTING CELLULAR MIGRATION” (UNIVERSIDAD DE CHILE, priority 2008, published 2011).

Experiments:
lateral line primordium = assay: Lateral line primordium migration in CldnB::GFP transgenic zebra fish larvae (GFP fluorescence); type: in vivo, zebra fish (Danio rerio); details: 20 μM in medium, 22 hpf until 36 hpf
Procedure: (§1) Zebra fish (Danio rerio) are used, kept in a 14/10-hour light/darkness cycle. Embryos are recovered after natural fish mating and they grow in Petri plates at 28° C. in E3 medium (5 mM NaCl, 0.17 mM KCl, 0.33 mM CaCl2, 0.33 mM MgSO4, and 0.1% Methylene Blue) until the reach the development stadium suitable for the test, which is determined according to Kimmel et al., (1995). The larval stadiums are designated in post fertilization hours (hpf) or post fertilization days (dpf).
In this first example, in each cup on a plate with 24 cups with 2 ml of E3 medium each, we placed from 3-10 transgenic embryos that express the GFP gene under the control of the CldnB promoter (CldnB::GFP; kindly donated by Dr. Darren Gilmour (EMBL, Heidelberg, Germany). The agents subjected to tests (N˜(4˜hydroxyphenyl)retinamide (Fenretinide, 4-HPR), retinaldehide 9-cis, retinaldehide all-trans and only with the control vehicle: DMSO) were added to the medium at a final concentration of 20 μM when the embryos reached the 22 hpf stadium and the fish were kept in the medium plus the agent until 36 hpf. The GFP mark in the migratory primordium was observed every 4-6 hours in order to monitor its progress. At 36 hpf, we fixed one half of the fish (5 from each cup) with 4% paraformaldehyde dissolved in PBS. We observe the fluorescence of GFP (indicating the primordium position) and evaluated whether it migrated properly or not (FIG. 1).

CCR7 = assay: Expression of CCR7 in dendritic cells in maturation; type: cell-based
Text: (§2) Dendritic cells, when entering the maturation process, start to express chemokine receptors (CCR7, CXCR4) that direct their migration towards the secondary lymphoid organs. We have recently discovered that Fenritinide {4-HPR), a molecule utilized in “clinical trials” against breast cancer and neuroblastoma, inhibits the expression of CCR7 and CXCR4 in dendritic cells in maturation {Villablanca, Allende and collaborators; manuscript in preparation). […] In this way, Fenritinide would produce a blocking of the mature dendritic cells in the periphery, preventing their migration and arrival at the secondary lymphoid organs, affecting in this way the development of an immune response to pathogens or towards the tumoral cells proper.

CXCR4 [1] = assay: Expression of CXCR4 in dendritic cells in maturation; type: cell-based
Text: as §2

CD80 = assay: Expression of CD80 in dendritic cells; type: cell-based
Text: as §2

CD83 = assay: Expression of CD83 in dendritic cells; type: cell-based
Text: as §2

CD86 = assay: Expression of CD86 in dendritic cells; type: cell-based
Text: as §2

neuromasts = assay: DiAsp tinction of mature neuromasts of the posterior lateral line in zebra fish embryos; type: in vivo, zebra fish (Danio rerio)
Procedure: as §1
(§3) In this way, we have evaluated our hypothesis of the Fenritinide effect on dendritic cells, taking our invention as the test model. Zebra fish embryos were incubated in accordance with the basic conditions described in Example 1, but in the presence of Fenritinide since the time when the posterior lateral line primordium starts to migrate (22 hours post fecundation (hpf) stadium), until the LLP system is mature (36 hpf stadium) and is easily visualized with the DiAsp tinction. […] We checked whether the absence of mature neuromasts is caused by migration blocking by means of in situ hybridization using the claudin-B (anti-claudinB antibody, detected with immunofluorescence) primordium marker.
(§4) Embryos in the 22 hpf stadium were incubated between 26 and 28° C., in the absence or presence of either PGD2 or 15-deoxy-PJE2, permitting the development of embryos up to the 36 hpf stadium, at which time we checked the primordium advance both in the treated embryos and in the (untreated) control embryos.

[2] = system: posterior lateral line primordium; assay: Primordium migration with claudin-B primordium marker in zebra fish embryos; type: in vivo, zebra fish (Danio rerio); details: Example 2, incubation 22 hpf until 36 hpf
Procedure: as §1, §3

LLP primordium = LLP primordium advance in zebra fish embryos incubated with prostaglandins; type: in vivo, zebra fish (Danio rerio)
Procedure: as §1, §4

human dendritic cells = details: literature, Nencioni et al. 2002; cited from earlier work
CXCR4 [3] = details: literature, Scandelia et al. 2002; cited from earlier work
dendritic cells = assay: Migration of dendritic cells; type: cell-based; details: negative control
Text: as §2

[4] = Example 3, 10 μM, 22 hpf up to 36 hpf

Compound: CC1=C(/C=C/C(C)=C/C=C/C(C)=C/C(=O)Nc2ccc(O)cc2)C(C)(C)CCC1 [4-HPR, N˜(4˜hydroxyphenyl)retinamide]
- migration of the lateral line primordium (GFP fluorescence) (lateral line primordium): delay in the migration
- expression of CCR7 (CCR7): inhibits
- expression of CXCR4 (CXCR4 [1]): inhibits
- inhibition of CD80 (CD80): does not inhibit
- inhibition of CD83 (CD83): does not inhibit
- inhibition of CD86 (CD86): does not inhibit
- DiAsp tinction of mature neuromasts (neuromasts; Example 2, incubation 22 hpf until 36 hpf): negative
- primordium migration (claudin-B primordium marker) [2]: blocking of the migratory primordium at the beginning of its migration

Compound: CC1=C(/C=C/C(C)=C\C=C\C(C)=C\C=O)C(C)(C)CCC1 [9cRA, 9-cis retinaldehyde]
- migration of the lateral line primordium (GFP fluorescence) (lateral line primordium): normal migration

Compound: CCCCC[C@H](O)/C=C/[C@H]1C(=O)C[C@H](O)[C@@H]1C/C=C\CCCC(=O)O [PGD2]
- DiAsp tinction of neuromasts (neuromasts; [4]): negative
- LLP primordium migration (LLP primordium; [4]): considerably slower
- migration through CXCR4 in human dendritic cells (human dendritic cells): inhibit migration

Compound: CCCCC[C@H](O)/C=C/[C@H]1[C@H](O)CC(=O)[C@@H]1C/C=C\CCCC(=O)O [PGE2]
- DiAsp tinction of neuromasts (neuromasts; Example 3, 22 hpf up to 36 hpf, 26-28° C., concentration not given): dyed with DiAsp
- LLP primordium migration (LLP primordium; Example 3, 22 hpf up to 36 hpf, concentration not given): migrated normally
- expression of CXCR4 in dendritic cells (CXCR4 [3]): increments

Compound: CC1=C(/C=C/C(C)=C/C=C/C(C)=C/C(=O)O)C(C)(C)CCC1 [retinoic acid]
- expression of CXCR4 (CXCR4 [1]): not capable of inhibiting
- inhibition of the migration of dendritic cells (dendritic cells): not capable of inhibiting

Compound: retinaldehide all-trans [atRA]
- migration of the lateral line primordium (GFP fluorescence) (lateral line primordium): normal migration
